Assay results: article PMC5853558, “De novo identification of lipid II binding lipopeptides with antibacterial activity against vancomycin-resistant bacteria” (Chemical Science, 2017)
Converted amounts (≈) assume the structure as drawn. Read-outs that look alike come from different tables or passages of the source. *1 amine or outer side, *2 acyl side, *3 side chain or, on linkers, in order; H or OH if unused. Where a SMILES comes first, the peptide text is derived from it. Bridges are numbered along the chain shown (N, C = ends). [ ]: non-standard residue; d: D form. The star is where a group is joined. TBMB = c1c(C[*:1])cc(C[*:3])cc1C[*:2]; NHDecyl = CCCCCCCCCCN*; NHOctyl = CCCCCCCCN*

Legend:
Experiment in all cases: microbe, parasite or virus in culture
M. luteus (NCTC2665) = type: cell-based, Micrococcus luteus; settings: for MIC: Micrococcus luteus
Procedure: (§1) Section 4 Biological and biochemical experiments
(§2) 4.1 Minimum inhibitory concentration assay
(§3) MIC values were determined by using the broth microdilution method. Peptides were dissolved first in DMSO and diluted with broth so that the final peptide concentration was 1024 µg/ml and the DMSO concentration was 4%. Peptide serial dilutions were made in TSB in a polypropylene 96-wells plate using 50 µl volumes. An overnight culture of the organism of interest was diluted to and OD600 of 0.01 and grown until they reach 0.5. The culture was then diluted to 1 x 10^6 CFU/ml and 50 µl of this suspension was added to each well. The highest concentrations were then 512 µg/ml peptide and 2% DMSO. The plates were incubated at the preferred growth temperature of the organism that was used and 250 rpm. […] When […]
(§4) determining the MICs of the lipidated peptides, the lipopeptides were first dissolved in DMSO and diluted with TSB so that the peptide concentration was 128 µg/ml and the DMSO concentration was 4%. After inoculation the highest peptide concentration evaluated was 64 µg/ml and the DMSO concentration was 2%. A DMSO control was tested for each strain to ensure the DMSO did not affect the growth of the particular strain. […]

E. faecium (VRE155) = type: cell-based, Enterococcus faecium; settings: for MIC: Enterococcus faecium, read-out: MIC E. faecium (VRE155)
Procedure: as §1, §2, §3, §4

B. subtilis (168) = type: cell-based; settings: for MIC: Bacillus subtilis, read-out: MIC B. subtilis (168)
Procedure: as §1, §2, §3, §4

S. epidermidis (1587) = type: cell-based; settings: Staphylococcus epidermidis, read-out: MIC S. epidermidis (1587)
Procedure: as §1, §2, §3, §4

S. pyogenes (5448) = type: cell-based; settings: Streptococcus pyogenes, read-out: MIC S. pyogenes (5448)
Procedure: as §1, §2, §3, §4

E. faecium (E980) = type: cell-based, Enterococcus faecium; settings: Enterococcus faecium, read-out: MIC E. faecium (E980)
Procedure: as §1, §2, §3, §4

E. faecium (VRE0321) = type: cell-based, Enterococcus faecium; settings: Enterococcus faecium, read-out: MIC E. faecium (VRE0321)
Procedure: as §1, §2, §3, §4

E. faecium (VRE2297) = type: cell-based, Enterococcus faecium; settings: Enterococcus faecium, read-out: MIC E. faecium (VRE2297)
Procedure: as §1, §2, §3, §4

E. faecium (VRE7391) = type: cell-based, Enterococcus faecium; settings: Enterococcus faecium, read-out: MIC E. faecium (VRE7391)
Procedure: as §1, §2, §3, §4

[1] = Supplemental table S7, P8 with varying lipids, broth microdilution
[2] = Supplemental table S6, lipidated phage display hits, n.a. = not active, highest tested conc 64 µg/ml

With `CCCCCCCCNC(=O)CNC(=O)[C@H]1CSCc2cc3cc(c2)CSC[C@@H](NC(=O)[C@@H](CC(C)C)NC(=O)[C@@H](CC(C)C)NC(=O)[C@@H](CO)NC(=O)[C@@H](CCC(N)=O)NC(=O)[C@@H](CC(C)C)NC(=O)[C@@H](CC(C)C)NC(=O)[C@H](NC(=O)[C@@H](C)N)CSC3)C(=O)N2CCC[C@@H]2C(=O)N[C@H](Cc2ccc(O)cc2)C(=O)N[C@H](CO)C(=O)N[C@H]([C@H](C)O)C(=O)N[C@H](Cc2c[nH]cn2)C(=O)N[C@H](CCCNC(=N)N)C(=O)N1` [Peptide P8-D-C8] (H-[dA][dC][dL][dL][dQ][dS][dL][dL][dC][dP][dY][dS][dT][dH][dR][dC]G-NHOctyl; linker 2-9-16 via TBMB; N-terminus assumed) the “MIC M. luteus” value (M. luteus (NCTC2665); [1]) was 16 µg/mL (≈ 7.65 µM) and the “MIC VRE E155” value (E. faecium (VRE155); [1]) was 8 to 16 µg/mL.
In the case of `CN[C@H](CC(C)C)C(=O)N[C@H]1C(=O)N[C@@H](CC(N)=O)C(=O)N[C@H]2C(=O)N[C@H]3C(=O)N[C@H](C(=O)N[C@H](C(=O)O)c4cc(O)cc(O)c4-c4cc3ccc4O)[C@H](O)c3ccc(c(Cl)c3)Oc3cc2cc(c3O[C@@H]2O[C@H](CO)[C@@H](O)[C@H](O)[C@H]2O[C@H]2C[C@](C)(N)[C@H](O)[C@H](C)O2)Oc2ccc(cc2Cl)[C@H]1O` [Vancomycin], the MIC (M. luteus (NCTC2665); NCTC2665, 16 h, read-out: MIC M. luteus (NCTC2665)) was less than 1 µg/mL, the MIC (M. luteus (NCTC2665); NCTC2665, read-out: MIC M. luteus (NCTC2665)) was less than 0.7 µM and the MIC (B. subtilis (168); 16 h) was less than 1 µg/mL. It also gave an MIC (B. subtilis (168)) of less than 0.7 µM, an MIC (S. epidermidis (1587); 16 h) of 2 µg/mL and an MIC (S. epidermidis (1587)) of 1.4 µM. For the same compound, the MIC (S. pyogenes (5448); 16 h) was less than 1 µg/mL, the MIC (S. pyogenes (5448)) was less than 0.7 µM and the MIC (E. faecium (E980); 16 h) was less than 1 µg/mL. It also gave an MIC (E. faecium (E980)) of less than 0.7 µM, an MIC (E. faecium (VRE0321); 16 h) greater than 64 µg/mL and an MIC (E. faecium (VRE0321)) greater than 44.2 µM. For the same compound, the MIC (E. faecium (VRE155); 16 h) was 64 µg/mL, the MIC (E. faecium (VRE155)) was 44.2 µM and the MIC (E. faecium (VRE2297); 16 h) was greater than 64 µg/mL. It also gave an MIC (E. faecium (VRE2297)) greater than 44.2 µM, an MIC (E. faecium (VRE7391); 16 h) greater than 64 µg/mL and an MIC (E. faecium (VRE7391)) greater than 44.2 µM.
With `CCCCCCCCCCNC(=O)CNC(=O)[C@@H]1CSCc2cc3cc(c2)CSC[C@H](NC(=O)[C@H](CC(N)=O)NC(=O)[C@H](Cc2ccccc2)NC(=O)[C@H](CCCCN)NC(=O)[C@H](CCC(N)=O)NC(=O)[C@@H]2CCCN2C(=O)[C@H](CCCNC(=N)N)NC(=O)[C@@H](NC(=O)[C@H](C)N)CSC3)C(=O)N[C@@H]([C@@H](C)CC)C(=O)N[C@@H](CO)C(=O)N[C@@H](C)C(=O)N[C@@H](CC(N)=O)C(=O)N[C@@H]([C@@H](C)CC)C(=O)N[C@@H](CCCNC(=N)N)C(=O)N1` [Peptide P4-C10] (H-ACRPQKFNCISANIRCG-NHDecyl; linker 2-9-16 via TBMB; N-terminus assumed) the “MIC M. luteus” value (M. luteus (NCTC2665); [2]) was 8 µg/mL (≈ 3.75 µM) and the “MIC B. subtilis” value (B. subtilis (168); [2]) was 8 to 16 µg/mL.
In the case of `CC(C)C[C@H]1NC(=O)[C@H](NC(=O)[C@@H](C)N)CSCc2cc3cc(c2)CSC[C@@H](NC(=O)[C@@H](CC(C)C)NC(=O)[C@@H](CC(C)C)NC(=O)[C@@H](CO)NC(=O)[C@@H](CCC(N)=O)NC(=O)[C@@H](CC(C)C)NC1=O)C(=O)N1CCC[C@@H]1C(=O)N[C@H](Cc1ccc(O)cc1)C(=O)N[C@H](CO)C(=O)N[C@H]([C@H](C)O)C(=O)N[C@H](C)C(=O)N[C@H](CCCNC(=N)N)C(=O)N[C@@H](C(=O)NCC(N)=O)CSC3` [Peptide P8-D-H14A] (H-[dA][dC][dL][dL][dQ][dS][dL][dL][dC][dP][dY][dS][dT][dA][dR][dC]G-NH2; linker 2-9-16 via TBMB; N-terminus assumed), the “MIC of Ala scan of P8-D against M. luteus” value (M. luteus (NCTC2665); Supplemental table S8, non-lipidated P8 variants, broth microdilution, highest tested 512 µg/ml) was 64 to 128 µg/mL.
